According to PubChem BioAssay AID1963834 (Molecular Pharmacology Branch, DTP, NCI, 2024):

System: 873145-292-R-J1-PDC complex spheroid viability
Experiment: Anticancer human tumor 873145-292-R-J1-PDC patient-derived renal clear cell carcinoma cell line growth inhibition [POLQ]
Conditions: for IC50: curve of first compound; for viability, T/C: stronger effect = lower value
Summary of the method: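 Patient-derived tumour cells were co-cultured with HUVEC and mesenchymal stem cells as multicellular spheroids at 37 °C. They were treated with POLQ inhibitors (novobiocin, ART-558, RP6685) alone or combined with other agents. Top concentrations were at or near clinical Cmax (otherwise 10 microM; SN-38 at 1 microM), decreasing in half-log steps.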

[1] = second compound 0.0316 µM, first compound 0.0316 µM
[2] = second compound 0.0316 µM, first compound 0.1 µM
[3] = second compound 0.0316 µM, first compound 0.316 µM
[4] = second compound 0.0316 µM, first compound 1 µM
[5] = second compound 0.0316 µM, first compound 3.16 µM
[6] = second compound 0.0316 µM, first compound 10 µM
[7] = second compound 0.1 µM, first compound 0.0316 µM
[8] = second compound 0.1 µM, first compound 0.1 µM
[9] = second compound 0.1 µM, first compound 0.316 µM
[10] = second compound 0.1 µM, first compound 1 µM
[11] = second compound 0.1 µM, first compound 3.16 µM
[12] = second compound 0.1 µM, first compound 10 µM
[13] = second compound 0.316 µM, first compound 0.0316 µM
[14] = second compound 0.316 µM, first compound 0.1 µM
[15] = second compound 0.316 µM, first compound 0.316 µM
[16] = second compound 0.316 µM, first compound 1 µM
[17] = second compound 0.316 µM, first compound 3.16 µM
[18] = second compound 0.316 µM, first compound 10 µM
[19] = second compound 1 µM, first compound 0.0316 µM
[20] = second compound 1 µM, first compound 0.1 µM
[21] = second compound 1 µM, first compound 0.316 µM
[22] = second compound 1 µM, first compound 1 µM
[23] = second compound 1 µM, first compound 3.16 µM
[24] = second compound 1 µM, first compound 10 µM
[25] = second compound 3.16 µM, first compound 0.0316 µM
[26] = second compound 3.16 µM, first compound 0.1 µM
[27] = second compound 3.16 µM, first compound 0.316 µM
[28] = second compound 3.16 µM, first compound 1 µM
[29] = second compound 3.16 µM, first compound 3.16 µM
[30] = second compound 3.16 µM, first compound 10 µM
[31] = second compound 10 µM, first compound 0.0316 µM
[32] = second compound 10 µM, first compound 0.1 µM
[33] = second compound 10 µM, first compound 0.316 µM
[34] = second compound 10 µM, first compound 1 µM
[35] = second compound 10 µM, first compound 3.16 µM
[36] = second compound 10 µM, first compound 10 µM
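Note: spheroids exposed to compounds for 7 days before viability readout.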
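Throughout, for viability, T/C: luminescence signal used as surrogate for viable cell content; 100% = DMSO vehicle control viability.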

O=c1[nH]cc(F)c(=O)[nH]1 + COC1C(OC(N)=O)C(O)C(Oc2ccc3c(O)c(NC(=O)c4ccc(O)c(CC=C(C)C)c4)c(=O)oc3c2C)OC1(C)C
IC50 (second compound 0.0316 µM): > 10 µM
IC50 (second compound 0.1 µM): > 10 µM
IC50 (second compound 0.316 µM): > 10 µM
IC50 (second compound 1 µM): > 10 µM
IC50 (second compound 3.16 µM): > 10 µM
IC50 (second compound 10 µM): > 10 µM
viability, T/C [1]: 100%
viability, T/C [2]: 92.8%
viability, T/C [3]: 90.8%
viability, T/C [4]: 110%
viability, T/C [5]: 87.9%
viability, T/C [6]: 96.8%
viability, T/C [7]: 105%
viability, T/C [8]: 103%
viability, T/C [9]: 85.2%
viability, T/C [10]: 95.4%
viability, T/C [11]: 89.2%
viability, T/C [12]: 89.1%
viability, T/C [13]: 101%
viability, T/C [14]: 90%
viability, T/C [15]: 87.1%
viability, T/C [16]: 87.4%
viability, T/C [17]: 109%
viability, T/C [18]: 91.3%
viability, T/C [19]: 88.9%
viability, T/C [20]: 89.8%
viability, T/C [21]: 86.2%
viability, T/C [22]: 87.7%
viability, T/C [23]: 100%
viability, T/C [24]: 88.5%
viability, T/C [25]: 95%
viability, T/C [26]: 95.5%
viability, T/C [27]: 90.2%
viability, T/C [28]: 92.3%
viability, T/C [29]: 101%
viability, T/C [30]: 91.3%
viability, T/C [31]: 91.3%
viability, T/C [32]: 91.3%
viability, T/C [33]: 92.5%
viability, T/C [34]: 96.3%
viability, T/C [35]: 93.1%
viability, T/C [36]: 89.9%

COc1cccc2c1C(=O)c1c(O)c3c(c(O)c1C2=O)CC(O)(C(=O)CO)CC3OC1CC(N)C(O)C(C)O1 (stereo unspecified) + COC1C(OC(N)=O)C(O)C(Oc2ccc3c(O)c(NC(=O)c4ccc(O)c(CC=C(C)C)c4)c(=O)oc3c2C)OC1(C)C
IC50 (second compound 0.0316 µM): 1.61 µM
IC50 (second compound 0.1 µM): 1.6 µM
IC50 (second compound 0.316 µM): 1.51 µM
IC50 (second compound 1 µM): 1.4 µM
IC50 (second compound 3.16 µM): 1.45 µM
IC50 (second compound 10 µM): 1.5 µM
viability, T/C [1]: 98.9%
viability, T/C [2]: 92.4%
viability, T/C [3]: 74.9%
viability, T/C [4]: 81.8%
viability, T/C [5]: 4.46%
viability, T/C [6]: 4.3%
viability, T/C [7]: 99.5%
viability, T/C [8]: 91.7%
viability, T/C [9]: 75.1%
viability, T/C [10]: 80.8%
viability, T/C [11]: 5.22%
viability, T/C [12]: 4.58%
viability, T/C [13]: 98.1%
viability, T/C [14]: 84.2%
viability, T/C [15]: 69.3%
viability, T/C [16]: 74.1%
viability, T/C [17]: 7.63%
viability, T/C [18]: 3.12%
viability, T/C [19]: 99.6%
viability, T/C [20]: 78.8%
viability, T/C [21]: 78.8%
viability, T/C [22]: 68.5%
viability, T/C [23]: 5.35%
viability, T/C [24]: 3.76%
viability, T/C [25]: 93.3%
viability, T/C [26]: 79.8%
viability, T/C [27]: 80.7%
viability, T/C [28]: 71.1%
viability, T/C [29]: 5.62%
viability, T/C [30]: 2.42%
viability, T/C [31]: 101%
viability, T/C [32]: 90.1%
viability, T/C [33]: 78.2%
viability, T/C [34]: 74.4%
viability, T/C [35]: 5.66%
viability, T/C [36]: 2.86%

CC(C)n1c(=O)n(C)c2cnc3cc(F)c(-c4ccc(OCCCN5CCCCC5)nc4)cc3c21 + Nc1ccc(C#CCN(C(=O)Cc2ncc(C(F)(F)F)cc2C(F)(F)F)c2ccc(F)cc2)nn1
IC50 (second compound 0.0316 µM): > 10 µM
IC50 (second compound 0.1 µM): > 10 µM
IC50 (second compound 0.316 µM): > 10 µM
IC50 (second compound 1 µM): > 10 µM
IC50 (second compound 3.16 µM): > 10 µM
IC50 (second compound 10 µM): > 10 µM
viability, T/C [1]: 97.1%
viability, T/C [2]: 106%
viability, T/C [3]: 97.8%
viability, T/C [4]: 102%
viability, T/C [5]: 99.6%
viability, T/C [6]: 107%
viability, T/C [7]: 107%
viability, T/C [8]: 112%
viability, T/C [9]: 97.1%
viability, T/C [10]: 108%
viability, T/C [11]: 93.8%
viability, T/C [12]: 80.5%
viability, T/C [13]: 104%
viability, T/C [14]: 115%
viability, T/C [15]: 97%
viability, T/C [16]: 103%
viability, T/C [17]: 104%
viability, T/C [18]: 72.1%
viability, T/C [19]: 109%
viability, T/C [20]: 106%
viability, T/C [21]: 113%
viability, T/C [22]: 96%
viability, T/C [23]: 97%
viability, T/C [24]: 85.8%
viability, T/C [25]: 99.8%
viability, T/C [26]: 111%
viability, T/C [27]: 92.4%
viability, T/C [28]: 102%
viability, T/C [29]: 101%
viability, T/C [30]: 86.1%
viability, T/C [31]: 110%
viability, T/C [32]: 101%
viability, T/C [33]: 108%
viability, T/C [34]: 107%
viability, T/C [35]: 104%
viability, T/C [36]: 86%
